Tested on: Nlrc5 and Nlrc5 target genes
Experiment: Expression of antigen presentation genes / surface MHCI in B16 cells
Assay type: cell-based, mouse
Conditions: B16 cells, MTA 100 μM for 24 hr, qPCR (FIG. 14E)

SMILES: CSC[C@H]1O[C@@H](n2cnc3c(N)ncnc32)[C@H](O)[C@@H]1O [MTA]
- basal Nlrc5 expression and that of Nlrc5 target genes (Tap1, B2m, Psmb9): increased
